The values that follow come from article PMC12171319, “3‐Oxabicyclo[3.1.1]heptane as an Isostere of meta‐Benzene” (Angewandte Chemie (International Ed. in English), 2025).

One may read the amount remaining as what is left of the initial amount, in per cent. The term logD denotes the decadic logarithm of the distribution of all forms, ionised or not, between an organic phase and buffer at a given pH. The IC50 is the concentration that inhibits the measured activity by half. By solubility (kinetic) is commonly meant solubility judged after dilution from a stock solution rather than from solid. The term solubility denotes the concentration that dissolves in the medium under given conditions. Read a high solubility as much dissolved substance. In general, pKa refers to the pH at which an ionisable group is half protonated. The term Papp A→B denotes how fast a substance crosses the layer from the apical side. Read a low Papp A→B as slow passage. The term Papp B→A denotes the apparent permeability from the basolateral to the apical side of a cell layer.

Molecules are shown by their SMILES. Converted amounts (≈) assume the structure as drawn. “And” between values parts separate entries of the source, which are not always exact repeats. Equal entries are not always repeated. Where two headings read alike, the source gives them in different places. A value given as a limit tells only on which side of the number the result lay.

Data set [1] in a line: Metabolic stability in human liver microsomes. Type of data set: in vitro ADME. The conditions noted are these: for remaining at […], 2 µM: 15 min. How it is done: 9. Metabolic Stability in Human Liver Microsomes
The objective of this study was to determine the metabolic stability of 3 test articles (EN300- […]
in human liver microsomes at five-time points over 40 minutes using HPLC-MS. Metabolic stability is defined as the percentage of parent compound lost over time in the presence of a metabolically active test system.
Potassium phosphate monobasic (Bio-Basic, Canada; Lot #N9016010)
Potassium phosphate dibasic (Bio-Basic, Canada; Lot #MA7100050) […]
Glucose-6-phosphate dehydrogenase from baker's yeast, type XV (Sigma-Aldrich, USA; Cat […]
D-Glucose-6-phosphate sodium salt (Sigma-Aldrich, USA; Cat #G7879-1G)
NADPH tetrasodium salt (BLD Pharmatech Ltd., Cat #BD116582)
Verapamil hydrochloride (Sigma Aldrich, USA; Cat #V4629)
Niclosamide (Sigma-Aldrich, USA; Cat #N3510)
DMSO stock solutions of the tested compounds 20 mM
Gradient HPLC system (Shimadzu)
Triple quadrupole mass-detector API 3000 with TurboIonSpray Ion Source (AB Sciex, Canada) […]
Multichannel pipettors 1-30 µL, 2-125 µL, 30-850 µL (Thermo Scientific) […]
All measurements were performed using the Shimadzu HPLC system including vacuum degasser, gradient pumps, reverse phase HPLC column, column oven, and autosampler. Mass spectrometric analysis was performed using an API 3000 mass spectrometer from Applied Biosystems/MDS Sciex (AB Sciex) with Turbo V ion source and TurboIonspray interface. The […]
and system control were performed using Analyst 1.6.3 software from AB Sciex.
Microsomal incubations were carried out in 96-well plates in 5 aliquots of 30 μL each (one for each time point). Liver microsomal incubation medium comprised of phosphate buffer (100 mM, pH 7.4), MgCl2 (3.3 mM), NADPН (3 mM), glucose-6-phosphate (5.3 mM), glucose-6-phosphate dehydrogenase (0.67 units/mL) with 0.42 mg of liver microsomal protein per mL. In the control reactions, the NADPH-cofactor system was substituted with phosphate buffer. Test compounds […]
100 rpm. Five-time points over 40 minutes were analyzed. The reactions were stopped by adding 5 volumes of acetonitrile with internal standard to incubation aliquots, followed by protein sedimentation by centrifuging at 5500 rpm for 5 min. Each reaction was performed in duplicates.
Supernatants were analyzed using the HPLC system coupled with a tandem mass spectrometer.
The elimination constant (kel), half-life (t1/2), and intrinsic clearance (Clint) were determined in a plot of […] versus time, using linear regression analysis:1
1 In order to indicate the quality of the linear regression analysis, the R2 (determination coefficient) values are provided.
In some cases, the last time point is excluded from the calculations to ensure acceptable logarithmic linearity of decay.
On the technique in general: Microsomes from liver hold many membrane-bound enzymes, among them those of drug oxidation.

In data set [2] the test system is Hedgehog signaling pathway. The conditions noted are these: Mus musculus, NIH3T3, read-out: IC50 (HH signal): inhibition of the Hedgehog signaling pathway, Gli reporter NIH3T3 cell line.
Data set [3] can be described thus: Kinetic solubility in phosphate-buffered saline, pH 7.4. Format: physicochemical. Conditions: for solubility at 2 h: PBS solubility. How it is done:
page 239: 7. […] The data […] analysis software. […] page 240: Methods Kinetic solubility assay was performed according to Enamine's aqueous solubility SOP. Briefly, […] theoretical concentration of 400 μM in duplicates in phosphate-buffered saline pH 7.4 […] The experimental compound dilutions in PBS were further allowed to equilibrate at 25 °C on a thermostatic shaker for two hours and then filtered through HTS filter plates using a vacuum manifold. The filtrates of test […] prepared to theoretical concentrations of 0 μM (blank), 10 μM, 25 μM, 50 μM, 100 μM, and 200 […] Ondansetron was used as a reference compound to control proper assay performance. 200 μL of each sample was transferred to a 96-well plate and measured in the 230-550 nm range with a 5 nm step. The concentrations of compounds in PBS filtrate are calculated using a dedicated Microsoft Excel calculation script. Proper absorbance wavelengths for calculations are selected for each compound manually based on absorbance maximums (absolute absorbance unit values for the minimum and maximum concentration points within the 0 - 3 OD range). Each final dataset is visually evaluated by the operator, and goodness of fit (R2) is calculated for each calibration curve. […] close to the upper limit of the range may have higher actual solubility (e.g. 5'-deoxy-5- fluorouridine). The calibration curves are shown in Appendix*. […] Compound ID PBS solubility, pH 7.4, μM SE […] Ondansetron 128 126 127** 1.1 EN300-7362818 6 6 6 0.2 (Sonidegib) BCHep-Sonidegib (50) 5 3 4 0.9 Table S3. 2nd batch PBS solubility, pH 7.4, μM Compound ID SE […] Ondansetron 124 124 124** 0.1 EN300-45381956 (51) 34 34 34 0.2 *Goodness of fit (R2) in all titration curves as well as the variations between repeat measurements indicates a high quality of the experimental data in the current batch of test articles. **Ondansetron solubility data are consistent with those previously obtained. […]

Data set [4] is described as follows: Preliminary thermal stability, heating at 100 °C for 5 min. Type of data set: physicochemical. The conditions noted are these: monitored by 1H NMR and LC-MS. The text has this: In addition, we checked the preliminary thermal stability of two representative 3‐oxabicyclo[3.1.1]heptanes: carboxylic acid 11b and N‐Boc amino acid 40.
Data set [5] is described as follows: Experimental pKa of carboxylic acids. Type of data set: physicochemical. The conditions noted are these: for pKa: read-out: pKa (exp.). The text has this: We also studied the influence of the replacement of the methylene group for the oxygen atom in the bicyclo[3.1.1]heptane skeleton on the electronic properties. For that, we experimentally measured pK a values of the bicyclo[3.1.1]heptane carboxylic acid 49, the 3‐oxabicyclo[3.1.1]heptane carboxylic acid 18b, and meta‐methyl benzoic acid (48) as a reference (Figure 5).^[ [34] ^]

A further data set can be described thus: in vitro. The conditions noted are these: human, 90 min, no verapamil; for Papp A→B: Caco-2, pH 7.4, Papp (AB); for Papp B→A: Caco-2, pH 7.4, Papp (BA).
Details of data set [6]: method as in earlier work. The conditions noted are these: cited from earlier work.
The mark [7] stands for this setting: both sexes, human, liver microsomes, pH 7.4, Table S6, 1st batch, 2 µM.
Where [8] appears, read: Table S4, 1st batch, incubation 1.
[9] abbreviates: Table S4, 1st batch, incubation 2.
Where [10] appears, read: Table S4, 1st batch, incubation 3.
Setting [11] is: 25 °C, pH 7.4, aqueous buffer, kinetic from dmso stock, pH 7.4, Incubation 1.
Setting [12] is: 25 °C, pH 7.4, aqueous buffer, kinetic from dmso stock, pH 7.4, Incubation 2.
The mark [13] stands for this setting: 25 °C, pH 7.4, aqueous buffer, kinetic from dmso stock, pH 7.4, Mean.

As for `O=C(O)Cc1ccccc1Nc1c(Cl)cccc1Cl` [Diclofenac], the “% Remaining, Mean of 2” value in data set [1] (Table S6, 1st batch, 25 min, 2 µM) was 4%; in data set [1] (Table S7, 2nd batch, 25 min, 2 µM) it was 11%; in [1] (Table S7, 2nd batch, 40 min, 2 µM) it was 2%. Also, the “% Remaining without cofactor, Mean of 2” value in data set [1] (Table S6, 1st batch, 40 min, no NADPH) is 95%. The amount remaining at 7 min, 2 µM in [1] (setting [7]) stood at 46%. Moreover, the amount remaining at […], 2 µM is 15% in [1] (setting [7]) and 26% in data set [1] (both sexes, human, liver microsomes, pH 7.4, Table S7, 2nd batch, 2 µM). Further, the microsomal CLint at 2 μM in data set [1] (both sexes, human, liver microsomes, pH 7.4, Table S7, 2nd batch, read-out: Clint) turned out to be 223 µL/min/mg.

Regarding `CC1CN(c2ccc(NC(=O)C34CCCC(c5ccc(OC(F)(F)F)cc5)(C3)C4)cn2)CC(C)O1` (centres unmarked) [Compound 50], the logD at 1 h in the data set “physchem” (pH 7.4, LogD, pH 7.4) is at least 4.5; in “physchem” (pH 7.4, LogD, pH 7.4 (overall of 3 incubations)), at least 4.5; in the data set “physchem” (pH 7.4, logD (7.4): experimental distribution coefficient in n-octanol/phosphate-buffered saline, pH 7.4), at least 4. Also, the IC50 in [2] turned out to be 616 nM. Moreover, the D is, setting by setting: under setting [8], 8.66E+04; under setting [9], 8.31E+04; under setting [10], 8.70E+04. The half-life at 2 μM in data set [1] (both sexes, human, human liver microsomes, pH 7.4, human liver microsomes, read-out: t1/2: experimental half-time of a metabolic decomposition) is 2 h; in data set [1] (both sexes, human, liver microsomes, pH 7.4, Table S6, 1st batch, read-out: t1/2), around 2 h. The microsomal CLint at 2 μM is 14 µL/min/mg in [1] (both sexes, human, human liver microsomes, pH 7.4, read-out: CLint: experimental metabolic stability in human liver microsomes) and around 14 µL/min/mg in data set [1] (both sexes, human, liver microsomes, pH 7.4, Table S6, 1st batch, read-out: Clint). The same molecule came in with a share remaining at 7 min, 2 µM in [1] (setting [7]) of 92%. Moreover, the share remaining at […], 2 µM in data set [1] (setting [7]) came to 98%. This molecule also registered a fraction remaining at 25 min, 2 µM in data set [1] (both sexes, human, liver microsomes, pH 7.4, Table S6, 1st batch, 25 min, 2 µM) of 88%. Moreover, the amount remaining at 40 min, 2 µM in [1] (both sexes, human, liver microsomes, pH 7.4, Table S6, 1st batch, 40 min, 2 µM, read-out: % Remaining, Mean of 2) came to 78%; in data set [1] (both sexes, human, liver microsomes, pH 7.4, Table S6, 1st batch, 40 min, no NADPH, read-out: % Remaining without cofactor, Mean of 2), 93%. This molecule showed a k el at 2 µM in [1] (both sexes, human, liver microsomes, pH 7.4, Table S6, 1st batch) of around 0.0001 s⁻¹. This molecule showed a solubility (kinetic) at 2 h in data set [3] (25 °C, pH 7.4, aqueous buffer, kinetic from dmso stock) of 4 µM (≈ 1.96 µg/mL). Moreover, the solubility at 2 h in [3] (setting [11]) is 5 µM (≈ 2.45 µg/mL); in data set [3] (setting [12]), 3 µM (≈ 1.47 µg/mL); in [3] (setting [13]), 4 µM (≈ 1.96 µg/mL).

Regarding `O=C(O)C12COCC(c3ccc(Br)cc3)(C1)C2` [Compound 11b], the thermal stability result in data set [4] is “remained stable”.

For the molecule `CC12CCCC(C(=O)O)(C1)C2` [Compound 49], in data set [5], the “pKa (exp.)” value turned out to be 5.0 and the pKa was 5.03.

`CC(C(=O)O)c1cccc(C(=O)c2ccccc2)c1` (centres unmarked) [Ketoprofen]: the Papp A→B in the data set “in vitro” (Mean, 10 µM) worked out at 21.8 ×10⁻⁶ cm/s; in “in vitro” (replicate 1, 10 µM), 19.8 ×10⁻⁶ cm/s; in “in vitro” (replicate 2, 10 µM), 23.8 ×10⁻⁶ cm/s. Besides, the Papp B→A was determined as 18.7 ×10⁻⁶ cm/s in “in vitro” (Mean, 10 µM); 19.5 ×10⁻⁶ cm/s in the data set “in vitro” (replicate 1, 10 µM); 17.9 ×10⁻⁶ cm/s in “in vitro” (replicate 2, 10 µM).

With `CC(C)(C)OC(=O)NC12COCC(C(=O)O)(C1)C2` [Compound 40], the thermal stability result in [4] is reported as “remained stable”.

With `Cc1cccc(C(=O)O)c1` [Compound 48, meta‐methyl benzoic acid], the “pKa (exp.)” value in data set [6] is 4.27 and 4.3.

As for `CC12COCC(C(=O)O)(C1)C2` [Compound 18b], in [5], the “pKa (exp.)” value stood at 4.2 and the pKa came out at 4.23.

Turning to `Cc1nccn1CC1CCc2c(c3ccccc3n2C)C1=O` (centres unmarked) [Ondansetron], the solubility at 2 h in [3] (setting [11]), in data set [3] (setting [12]) and in [3] (setting [13]) was 124 µM (≈ 36.4 µg/mL) each time. Besides, in data set [3] (Table S2, 1st batch), the “PBS solubility, pH 7.4, Mean” value was 127 µM.

Consider `COC(=O)Nc1nc2ccc(C(=O)c3ccccc3)cc2[nH]1` [Mebendazole], for which the logD at 1 h in “physchem” (pH 7.4, LogD, pH 7.4) was 3.06. Also, the D came to 8.21E+02 under setting [8]; 8.87E+02 under setting [9]; 8.17E+02 under setting [10]; 9.52E+02 (Table S5, 2nd batch, incubation 1); 1.14E+03 (Table S5, 2nd batch, incubation 2); 8.63E+02 (Table S5, 2nd batch, incubation 3).
